From publication PMC11593623, “D299T Mutation in CYP76F14 Led to a Decrease in Wine Bouquet Precursor Production in Wine Grape” (Genes, 2024) come the findings set out here.

The structures appear in SMILES notation.

The target in the assay is T1, 'L35' VvCYP76F14 (Vitis vinifera, UniProt A0A1B2ZBX8, S46N/I107T/K111N/Q175R/V222L/N286S/T325K/G378E/A380T/D383E/A386T).
T1 construct: 499-residue CDS, synthesized (GenScript), E. coli BL21(DE3); purification and tags not described; Arabidopsis CPR ATR1 as redox partner
T1 sequence (A0A1B2ZBX8 entry or part of it with the stated changes): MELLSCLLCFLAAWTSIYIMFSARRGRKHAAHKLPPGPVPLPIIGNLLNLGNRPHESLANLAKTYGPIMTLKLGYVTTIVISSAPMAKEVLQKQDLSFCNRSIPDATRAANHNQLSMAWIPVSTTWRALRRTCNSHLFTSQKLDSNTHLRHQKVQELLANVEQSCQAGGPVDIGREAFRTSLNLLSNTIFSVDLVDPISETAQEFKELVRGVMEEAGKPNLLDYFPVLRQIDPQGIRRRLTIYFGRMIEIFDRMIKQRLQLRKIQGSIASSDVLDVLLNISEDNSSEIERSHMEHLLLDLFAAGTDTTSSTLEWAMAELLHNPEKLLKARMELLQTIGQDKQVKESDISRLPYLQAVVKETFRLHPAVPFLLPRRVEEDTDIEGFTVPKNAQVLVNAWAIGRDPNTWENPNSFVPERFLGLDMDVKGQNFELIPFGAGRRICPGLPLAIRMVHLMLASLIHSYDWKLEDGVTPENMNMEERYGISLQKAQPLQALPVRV
Put plainly: substrate remnant by UPLC-MS. In kind it is cell-based. To be noted: Arabidopsis CPR ATR1 as redox partner; 26 °C, 1 h; recombinant E. coli protein, purification not described.

In the case of `C=CC(C)(O)CC/C=C(\C)CO` (centres unmarked) [(E)-8-hydroxylinalool], the “substrate remnant by UPLC-MS” value was “‘L35’ VvCYP76F14 exhibited lower remnants of linalool and (E)-8-hydroxylinalool substrates”.

Take `C=CC(C)(O)CCC=C(C)C` (centres unmarked) [linalool]: the “substrate remnant by UPLC-MS” value is “‘L35’ VvCYP76F14 exhibited lower remnants of linalool and (E)-8-hydroxylinalool substrates”.
